Laboratory results from patent US7091040B1, “P450/acetaminophen genetically directed enzyme prodrug therapy (GDEPT)” (Innovata PLC, priority 1999, dated 2006).

Experiments:
H1A2 MZ cells = test: Viability of H1A2 MZ cells (stably transfected with human CYP1A2) incubated with acetaminophen, trypan blue exclusion; conditions: H1A2 MZ cells; 0.1 mM acetaminophen; 6 h
Protocol: (§1) For cell viability experiments 200,000 cells per well were plated on 12 well plates (Beckton-Dickenson, Oxford, UK), using the medium and conditions required by the tumour cell line and allowed to adhere overnight. After this the cells were washed with PBS before the addition of acetaminophen in 0.1 ml PBS (concentrations of 0.1–20 mM acetaminophen were dissolved in PBS by sonication) and then maintained at 37° C. At the appropriate time points, cells were removed from the plates by trypsinisation and collected by centrifugation. Cell viability was measured as ability to exclude trypan blue. Cells were counted at ×100 magnification using an Improved Neubauer haemocytometer; all cell counts are the mean of duplicate determinations of five fields from duplicate experiments.
(§2) V79 MZ Chinese hamster cells were maintained in Dulbecco-Vogt's modified Eagle's Medium (DMEM) supplemented with 10% foetal calf serum 9FCS), 2 mM L-glutamine, penicillin (100 U/ml and streptomycin (100 μg/ml) (all tissue culture reagents were obtained from Gibco BRL, Paisley, UK). H1A2 MZ cells, which are V79 MZ cells transfected with the human CYP1A2 gene, were also maintained in supplemented DMEM with the addition of geneticin at a concentration of 4 mg/ml. SK-OV-3 cells were grown in DMEM supplemented with 15% FCS and 2 mM L-glutamine, without the addition of antibiotics. RPMI-1640 medium with 10% FCS, 2 mM L-glutamine, penicillin (100 U/ml) and streptomycin ([…]) was required by the HCT116 cells. These cell lines were maintained at 37° C. with 100% humidity and 5% CO2. […] At confluence cells were removed from tissue culture flasks by inubation with trypsin-EDTA for 5 min, diluted 1:3–1:6 in fresh medium and seeded onto fresh flasks. The tumour cell lines were obtained from the European Collection of Cell Cultures.

[1] = as above; conditions: Chinese hamster
Protocol: as §1, §2

SK-OV-3 cells = test: Bystander effect on viability of SK-OV-3 cells co-cultured with H1A2 MZ cells in the presence of acetaminophen, trypan blue exclusion; assay type: cell-based, human; conditions: for viability at 4000 µM: Homo sapiens
Protocol: (§3) Tumour cells or V79 MZ cells (non transfected, parental cells) were co-cultured overnight with various mixtures of H1A2 MZ cells (as indicated in the Table), washed with PBS and incubated with 4 mM acetaminophen in PBS for 6 h at 37° C. the cells were then washed once with PBS and maintained for either 24 or 48 h in culture medium appropriate to each cell type, as detailed in the Methods section. At 0, 6, 24 or 48 h the cells were washed in PBS and viability of the mixed cell population determined by trypan blue exclusion. The data shown are mean values±SEM of 4 separate determinations. Statistical significance was determined at each time point by comparing viability measurements in the mixed cell populations with both the viability determined at 0 h and in the absence of H1A2 MZ cells in the mixture 2×2 contingency tables using the 2-tailed Chi-squared test with Yate's correction. Viability was determined in a total of 1500 cells at each time point. Levels of significance are indicated as **p<0.001; ***p<0.0001;
as §1, §2

HCT116 cells = test: Bystander effect on viability of HCT116 cells co-cultured with H1A2 MZ cells in the presence of acetaminophen, trypan blue exclusion; assay type: cell-based, human; conditions: for viability at 4000 µM: Homo sapiens
Protocol: as §3, §1, §2

MDA-MB-361 cells = test: Bystander effect on viability of MDA-MB-361 cells co-cultured with H1A2 MZ cells in the presence of acetaminophen, trypan blue exclusion; assay type: cell-based, human; conditions: for viability at 4000 µM: Homo sapiens
Protocol: as §3, §1, §2

[2] = as above; assay type: cell-based, human; conditions: human; for viability at 4 mM: 4 mM acetaminophen 6 h; for viability at 0 h, 4 mM / viability at 6 h, 4 mM: 4 mM acetaminophen in PBS
Protocol: as §3, §1, §2

[3] = MDA-MB-361 cells + 10% H1A2 MZ cells
[4] = MDA-MB-361 cells + 25% H1A2 MZ cells
[5] = MDA-MB-361 cells + 50% H1A2 MZ cells

CC(=O)Nc1ccc(O)cc1 [acetaminophen]
cytotoxicity (H1A2 MZ cells): No cytotoxicity
viability at 6 h, 1 mM [1]: 62%
viability at 6 h, 4 mM [1]: 8%
viability at 4000 µM (SK-OV-3 cells; SK-OV-3, 0 h, SK-OV-3 cells + 5% H1A2 MZ cells, 4 mM acetaminophen in PBS, 0 h): 98 ± 1%
viability at 4000 µM (SK-OV-3 cells; SK-OV-3, 0 h, SK-OV-3 cells + 10% H1A2 MZ cells, 4 mM acetaminophen in PBS, 0 h): 98 ± 1%
viability at 4000 µM (SK-OV-3 cells; SK-OV-3, 0 h, SK-OV-3 cells + 25% H1A2 MZ cells, 4 mM acetaminophen in PBS, 0 h): 97 ± 1%
viability at 4000 µM (SK-OV-3 cells; SK-OV-3, 0 h, SK-OV-3 cells + 50% H1A2 MZ cells, 4 mM acetaminophen in PBS, 0 h): 98 ± 1%
viability at 4000 µM (SK-OV-3 cells; SK-OV-3, 0 h, SK-OV-3 cells, 0% H1A2 MZ cells, 4 mM acetaminophen in PBS, 0 h): 97 ± 1%
viability at 4000 µM (SK-OV-3 cells; SK-OV-3, 6 h, SK-OV-3 cells + 5% H1A2 MZ cells, 4 mM acetaminophen in PBS, 6 h): 55 ± 2%
viability at 4000 µM (SK-OV-3 cells; SK-OV-3, 6 h, SK-OV-3 cells + 10% H1A2 MZ cells, 4 mM acetaminophen in PBS, 6 h): 43 ± 7%
viability at 4000 µM (SK-OV-3 cells; SK-OV-3, 6 h, SK-OV-3 cells + 25% H1A2 MZ cells, 4 mM acetaminophen in PBS, 6 h): 22 ± 11%
viability at 4000 µM (SK-OV-3 cells; SK-OV-3, 6 h, SK-OV-3 cells + 50% H1A2 MZ cells, 4 mM acetaminophen in PBS, 6 h): 16 ± 9%
viability at 4000 µM (SK-OV-3 cells; SK-OV-3, 6 h, SK-OV-3 cells, 0% H1A2 MZ cells, 4 mM acetaminophen in PBS, 6 h): 98 ± 2%
viability at 4000 µM (SK-OV-3 cells; SK-OV-3, SK-OV-3 cells + 5% H1A2 MZ cells, 4 mM acetaminophen 6 h, then 24 h in culture medium): 0%
viability at 4000 µM (SK-OV-3 cells; SK-OV-3, SK-OV-3 cells + 10% H1A2 MZ cells, 4 mM acetaminophen 6 h, then 24 h in culture medium): 0%
viability at 4000 µM (SK-OV-3 cells; SK-OV-3, SK-OV-3 cells + 25% H1A2 MZ cells, 4 mM acetaminophen 6 h, then 24 h in culture medium): 0%
viability at 4000 µM (SK-OV-3 cells; SK-OV-3, SK-OV-3 cells + 50% H1A2 MZ cells, 4 mM acetaminophen 6 h, then 24 h in culture medium): 0%
viability at 4000 µM (SK-OV-3 cells; SK-OV-3, SK-OV-3 cells, 0% H1A2 MZ cells, 4 mM acetaminophen 6 h, then 24 h in culture medium): 96 ± 3%
Viability (%) (SK-OV-3 cells; SK-OV-3 cells + 5% H1A2 MZ cells, 4 mM acetaminophen 6 h, then 24 h in culture medium): zero
susceptibility to cytotoxicity produced by the activation of acetaminophen (SK-OV-3 cells; SK-OV-3 cells mixed with H1A2 MZ cells, 4 mM acetaminophen, 6 h): highly sensitive
Viability (%) (HCT116 cells; HCT116 cells + 5% H1A2 MZ cells, 4 mM acetaminophen 6 h, then 24 h in culture medium): zero
susceptibility to cytotoxicity produced by the activation of acetaminophen (HCT116 cells; HCT116 cells incubated with 5 and 10% H1A2 MZ cells, 4 mM acetaminophen, 6 h): disproportionate decrease in viability
viability at 4000 µM (HCT116 cells; HCT-116, 0 h, HCT116 cells + 5% H1A2 MZ cells, 4 mM acetaminophen in PBS, 0 h): 98 ± 1%
viability at 4000 µM (HCT116 cells; HCT-116, 0 h, HCT116 cells + 10% H1A2 MZ cells, 4 mM acetaminophen in PBS, 0 h): 98 ± 1%
viability at 4000 µM (HCT116 cells; HCT-116, 0 h, HCT116 cells + 25% H1A2 MZ cells, 4 mM acetaminophen in PBS, 0 h): 97 ± 1%
viability at 4000 µM (HCT116 cells; HCT-116, 0 h, HCT116 cells + 50% H1A2 MZ cells, 4 mM acetaminophen in PBS, 0 h): 98 ± 1%
viability at 4000 µM (HCT116 cells; HCT-116, 0 h, HCT116 cells, 0% H1A2 MZ cells, 4 mM acetaminophen in PBS, 0 h): 96 ± 1%
viability at 4000 µM (HCT116 cells; HCT-116, 6 h, HCT116 cells + 5% H1A2 MZ cells, 4 mM acetaminophen in PBS, 6 h): 69 ± 9%
viability at 4000 µM (HCT116 cells; HCT-116, 6 h, HCT116 cells + 10% H1A2 MZ cells, 4 mM acetaminophen in PBS, 6 h): 60 ± 6%
viability at 4000 µM (HCT116 cells; HCT-116, 6 h, HCT116 cells + 25% H1A2 MZ cells, 4 mM acetaminophen in PBS, 6 h): 56 ± 4%
viability at 4000 µM (HCT116 cells; HCT-116, 6 h, HCT116 cells + 50% H1A2 MZ cells, 4 mM acetaminophen in PBS, 6 h): 42 ± 6%
viability at 4000 µM (HCT116 cells; HCT-116, 6 h, HCT116 cells, 0% H1A2 MZ cells, 4 mM acetaminophen in PBS, 6 h): 96 ± 5%
viability at 4000 µM (HCT116 cells; HCT-116, HCT116 cells + 5% H1A2 MZ cells, 4 mM acetaminophen 6 h, then 24 h in culture medium): 0%
viability at 4000 µM (HCT116 cells; HCT-116, HCT116 cells + 10% H1A2 MZ cells, 4 mM acetaminophen 6 h, then 24 h in culture medium): 0%
viability at 4000 µM (HCT116 cells; HCT-116, HCT116 cells + 25% H1A2 MZ cells, 4 mM acetaminophen 6 h, then 24 h in culture medium): 0%
viability at 4000 µM (HCT116 cells; HCT-116, HCT116 cells + 50% H1A2 MZ cells, 4 mM acetaminophen 6 h, then 24 h in culture medium): 0%
viability at 4000 µM (HCT116 cells; HCT-116, HCT116 cells, 0% H1A2 MZ cells, 4 mM acetaminophen 6 h, then 24 h in culture medium): 96 ± 2%
viability at 4000 µM (MDA-MB-361 cells; MDA-MB-361, 0 h, MDA-MB-361 cells + 5% H1A2 MZ cells, 4 mM acetaminophen in PBS, 0 h): 98 ± 2%
viability at 4000 µM (MDA-MB-361 cells; MDA-MB-361, 0 h, MDA-MB-361 cells, 0% H1A2 MZ cells, 4 mM acetaminophen in PBS, 0 h): 96 ± 1%
viability at 4000 µM (MDA-MB-361 cells; MDA-MB-361, 6 h, MDA-MB-361 cells + 5% H1A2 MZ cells, 4 mM acetaminophen in PBS, 6 h): 85 ± 2%
viability at 4000 µM (MDA-MB-361 cells; MDA-MB-361, 6 h, MDA-MB-361 cells, 0% H1A2 MZ cells, 4 mM acetaminophen in PBS, 6 h): 98 ± 4%
viability at 4000 µM (MDA-MB-361 cells; MDA-MB-361, MDA-MB-361 cells + 50% H1A2 MZ cells, 4 mM acetaminophen 6 h, then 24 h in culture medium): 18%
viability at 4000 µM (MDA-MB-361 cells; MDA-MB-361, MDA-MB-361 cells, 0% H1A2 MZ cells, 4 mM acetaminophen 6 h, then 24 h in culture medium): 95 ± 3%
viability at 4000 µM (MDA-MB-361 cells; MDA-MB-361, MDA-MB-361 cells, 0% H1A2 MZ cells, 4 mM acetaminophen 6 h, then 48 h in culture medium): 97 ± 1%
Viability (%) (MDA-MB-361 cells; MDA-MB-361 cells + 50% H1A2 MZ cells, 4 mM acetaminophen 6 h, then 48 h in culture medium): no viable cells
susceptibility to cytotoxicity produced by the activation of acetaminophen (MDA-MB-361 cells; MDA-MB-361 cells mixed with H1A2 MZ cells, 4 mM acetaminophen, 6 h): highly resistant to cytotoxicity
viability at 4 mM ([2]; MDA-MB-361 cells + 5% H1A2 MZ cells, then 24 h in culture medium): 84 ± 7%
viability at 4 mM ([2]; MDA-MB-361 cells + 5% H1A2 MZ cells, then 48 h in culture medium): 92 ± 4%
viability at 4 mM ([2]; MDA-MB-361 cells + 10% H1A2 MZ cells, then 24 h in culture medium): 81 ± 9%
viability at 4 mM ([2]; MDA-MB-361 cells + 10% H1A2 MZ cells, then 48 h in culture medium): 94 ± 7%
viability at 0 h, 4 mM [2, 3]: 96 ± 3%
viability at 6 h, 4 mM [2, 3]: 74 ± 7%
viability at 4 mM ([2]; MDA-MB-361 cells + 25% H1A2 MZ cells, then 24 h in culture medium): 78 ± 9%
viability at 4 mM ([2]; MDA-MB-361 cells + 25% H1A2 MZ cells, then 48 h in culture medium): 91 ± 6%
viability at 0 h, 4 mM [2, 4]: 97 ± 1%
viability at 6 h, 4 mM [2, 4]: 70 ± 11%
viability at 4 mM ([2]; MDA-MB-361 cells + 50% H1A2 MZ cells, then 48 h in culture medium): 0%
viability at 0 h, 4 mM [2, 5]: 98 ± 3%
viability at 6 h, 4 mM [2, 5]: 42 ± 4%
